According to ChEMBL document CHEMBL5442219:

Columns and labels:
Settings in all cases: Compound concentration 10 µM
[1] = target: T1, Alpha-1D adrenergic receptor (Homo sapiens) (UniProt P25100)
T1 sequence (whole entry): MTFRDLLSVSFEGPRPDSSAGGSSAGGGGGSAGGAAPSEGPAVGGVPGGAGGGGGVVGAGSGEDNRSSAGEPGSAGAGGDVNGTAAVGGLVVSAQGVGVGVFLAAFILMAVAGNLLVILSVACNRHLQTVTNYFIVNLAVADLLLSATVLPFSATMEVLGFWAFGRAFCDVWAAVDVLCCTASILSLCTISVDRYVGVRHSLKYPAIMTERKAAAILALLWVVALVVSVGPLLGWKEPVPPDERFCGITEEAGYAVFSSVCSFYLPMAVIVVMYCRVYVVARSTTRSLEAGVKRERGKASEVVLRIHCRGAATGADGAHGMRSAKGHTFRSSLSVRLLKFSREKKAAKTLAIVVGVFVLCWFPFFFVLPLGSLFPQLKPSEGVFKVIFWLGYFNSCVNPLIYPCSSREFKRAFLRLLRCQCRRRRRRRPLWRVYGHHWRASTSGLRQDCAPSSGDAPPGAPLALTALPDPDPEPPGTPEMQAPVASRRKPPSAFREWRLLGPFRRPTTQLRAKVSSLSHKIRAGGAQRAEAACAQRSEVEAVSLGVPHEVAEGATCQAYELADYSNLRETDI

[2] = target: T2, Alpha-2B adrenergic receptor (Homo sapiens) (UniProt P18089)
T2 sequence (whole entry): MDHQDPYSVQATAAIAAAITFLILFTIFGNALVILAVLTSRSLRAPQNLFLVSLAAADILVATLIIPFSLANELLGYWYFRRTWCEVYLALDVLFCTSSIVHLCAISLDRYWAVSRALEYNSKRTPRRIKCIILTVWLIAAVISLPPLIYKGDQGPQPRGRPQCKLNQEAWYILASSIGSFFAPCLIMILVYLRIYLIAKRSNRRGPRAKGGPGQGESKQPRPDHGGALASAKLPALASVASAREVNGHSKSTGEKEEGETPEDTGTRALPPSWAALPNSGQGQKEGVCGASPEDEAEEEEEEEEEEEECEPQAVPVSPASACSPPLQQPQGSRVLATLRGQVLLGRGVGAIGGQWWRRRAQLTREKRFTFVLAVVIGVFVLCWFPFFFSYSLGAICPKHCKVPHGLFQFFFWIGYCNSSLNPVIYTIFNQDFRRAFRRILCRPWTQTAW

[3] = target: Beta-2 adrenergic receptor (Homo sapiens) (UniProt P07550)
[4] = target: T3, Muscarinic acetylcholine receptor M1 (Homo sapiens) (UniProt P11229)
T3 sequence (whole entry): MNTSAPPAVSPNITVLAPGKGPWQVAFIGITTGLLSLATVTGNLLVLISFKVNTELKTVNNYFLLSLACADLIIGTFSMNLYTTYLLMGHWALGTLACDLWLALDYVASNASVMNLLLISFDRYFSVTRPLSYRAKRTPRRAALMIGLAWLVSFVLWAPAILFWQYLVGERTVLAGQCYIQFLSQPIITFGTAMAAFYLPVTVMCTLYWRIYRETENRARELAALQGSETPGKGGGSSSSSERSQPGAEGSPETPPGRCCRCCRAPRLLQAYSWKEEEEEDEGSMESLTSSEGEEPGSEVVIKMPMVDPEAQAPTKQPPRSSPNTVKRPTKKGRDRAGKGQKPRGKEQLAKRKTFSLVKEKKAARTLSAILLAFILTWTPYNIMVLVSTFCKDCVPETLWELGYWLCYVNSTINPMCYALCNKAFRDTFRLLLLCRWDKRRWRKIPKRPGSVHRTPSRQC

[5] = target: Muscarinic acetylcholine receptor M3 (Homo sapiens) (UniProt P20309)
[6] = target: D(1B) dopamine receptor (Homo sapiens) (UniProt P21918)
[7] = target: Histamine H3 receptor (Homo sapiens) (UniProt Q9Y5N1)
[8] = target: Histamine H4 receptor (Homo sapiens) (UniProt Q9H3N8)
[9] = target: 5-hydroxytryptamine receptor 1D (Homo sapiens) (UniProt P28221)
[10] = target: 5-hydroxytryptamine receptor 2A (Homo sapiens) (UniProt P28223)
[11] = target: T4, 5-hydroxytryptamine receptor 2C (Homo sapiens) (UniProt P28335)
T4 sequence (whole entry): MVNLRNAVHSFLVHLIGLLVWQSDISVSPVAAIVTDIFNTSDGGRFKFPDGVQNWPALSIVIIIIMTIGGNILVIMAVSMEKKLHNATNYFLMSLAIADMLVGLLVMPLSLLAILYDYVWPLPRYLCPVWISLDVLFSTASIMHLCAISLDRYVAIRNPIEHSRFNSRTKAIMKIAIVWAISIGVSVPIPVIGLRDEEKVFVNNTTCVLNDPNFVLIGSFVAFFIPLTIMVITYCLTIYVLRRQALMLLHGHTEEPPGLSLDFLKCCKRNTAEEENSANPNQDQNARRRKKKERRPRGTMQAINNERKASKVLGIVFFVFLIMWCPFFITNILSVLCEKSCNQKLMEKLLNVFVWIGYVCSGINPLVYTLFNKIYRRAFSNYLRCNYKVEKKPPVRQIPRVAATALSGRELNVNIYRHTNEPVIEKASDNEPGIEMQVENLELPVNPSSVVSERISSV

[12] = target: 5-hydroxytryptamine receptor 6 (Homo sapiens) (UniProt P50406)
[13] = target: 5-hydroxytryptamine receptor 7 (Homo sapiens) (UniProt P34969)
[14] = target: Delta-type opioid receptor (Homo sapiens) (UniProt P41143)
[15] = target: Mu-type opioid receptor (Homo sapiens) (UniProt P35372)
[16] = target: Sigma intracellular receptor 2 (Homo sapiens) (UniProt Q5BJF2)
[17] = target: Beta-3 adrenergic receptor (Homo sapiens) (UniProt P13945)
Beta-3 adrenergic receptor (Homo sapiens), sequence (P13945 whole entry, looked up): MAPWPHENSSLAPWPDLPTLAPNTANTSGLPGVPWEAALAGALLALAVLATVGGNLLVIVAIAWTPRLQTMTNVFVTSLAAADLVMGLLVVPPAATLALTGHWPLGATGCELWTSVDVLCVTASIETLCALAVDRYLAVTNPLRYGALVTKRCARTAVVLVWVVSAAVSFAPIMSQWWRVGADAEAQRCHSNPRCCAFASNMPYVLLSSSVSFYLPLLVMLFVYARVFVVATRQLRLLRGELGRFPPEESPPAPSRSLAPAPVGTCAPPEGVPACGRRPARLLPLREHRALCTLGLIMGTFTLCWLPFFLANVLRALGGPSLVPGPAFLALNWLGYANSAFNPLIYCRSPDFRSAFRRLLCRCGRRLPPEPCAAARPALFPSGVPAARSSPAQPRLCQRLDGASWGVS

Delta-type opioid receptor (Homo sapiens), sequence (P41143 whole entry): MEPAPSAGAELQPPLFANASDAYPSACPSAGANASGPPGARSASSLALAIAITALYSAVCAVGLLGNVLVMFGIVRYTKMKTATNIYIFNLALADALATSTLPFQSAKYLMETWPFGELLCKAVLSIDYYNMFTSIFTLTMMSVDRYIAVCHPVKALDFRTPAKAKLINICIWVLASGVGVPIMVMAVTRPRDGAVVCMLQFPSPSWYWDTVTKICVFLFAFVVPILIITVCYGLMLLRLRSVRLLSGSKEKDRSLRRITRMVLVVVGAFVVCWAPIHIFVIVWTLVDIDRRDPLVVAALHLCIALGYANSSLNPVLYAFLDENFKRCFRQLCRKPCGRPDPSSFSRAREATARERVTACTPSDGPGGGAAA
5-hydroxytryptamine receptor 7 (Homo sapiens), sequence (P34969 whole entry): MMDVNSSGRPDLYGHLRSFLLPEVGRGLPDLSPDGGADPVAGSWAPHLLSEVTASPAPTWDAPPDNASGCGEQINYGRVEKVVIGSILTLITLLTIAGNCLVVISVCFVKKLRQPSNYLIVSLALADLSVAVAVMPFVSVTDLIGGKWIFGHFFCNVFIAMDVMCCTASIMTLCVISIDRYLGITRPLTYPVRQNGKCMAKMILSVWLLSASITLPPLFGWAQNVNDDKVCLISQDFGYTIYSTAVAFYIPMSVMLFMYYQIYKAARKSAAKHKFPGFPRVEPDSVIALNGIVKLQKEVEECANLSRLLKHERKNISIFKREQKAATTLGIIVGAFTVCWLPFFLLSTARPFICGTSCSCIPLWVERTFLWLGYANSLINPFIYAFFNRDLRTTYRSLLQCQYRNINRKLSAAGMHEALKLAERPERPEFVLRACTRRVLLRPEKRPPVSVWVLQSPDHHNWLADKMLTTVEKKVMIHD
Histamine H3 receptor (Homo sapiens), sequence (Q9Y5N1 whole entry): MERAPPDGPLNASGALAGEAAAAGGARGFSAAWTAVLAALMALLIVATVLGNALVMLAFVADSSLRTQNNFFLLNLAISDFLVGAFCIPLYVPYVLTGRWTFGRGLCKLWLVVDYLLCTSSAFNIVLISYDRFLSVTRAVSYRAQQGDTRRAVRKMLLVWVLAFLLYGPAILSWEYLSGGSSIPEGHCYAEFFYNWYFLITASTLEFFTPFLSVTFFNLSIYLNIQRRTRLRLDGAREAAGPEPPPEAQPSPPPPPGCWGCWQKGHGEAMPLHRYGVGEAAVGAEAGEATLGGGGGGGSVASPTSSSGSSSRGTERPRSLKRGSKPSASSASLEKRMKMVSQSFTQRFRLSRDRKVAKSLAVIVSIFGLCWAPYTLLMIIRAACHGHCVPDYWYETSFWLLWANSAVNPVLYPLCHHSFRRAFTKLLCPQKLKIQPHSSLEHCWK
Muscarinic acetylcholine receptor M3 (Homo sapiens), sequence (P20309 whole entry, looked up): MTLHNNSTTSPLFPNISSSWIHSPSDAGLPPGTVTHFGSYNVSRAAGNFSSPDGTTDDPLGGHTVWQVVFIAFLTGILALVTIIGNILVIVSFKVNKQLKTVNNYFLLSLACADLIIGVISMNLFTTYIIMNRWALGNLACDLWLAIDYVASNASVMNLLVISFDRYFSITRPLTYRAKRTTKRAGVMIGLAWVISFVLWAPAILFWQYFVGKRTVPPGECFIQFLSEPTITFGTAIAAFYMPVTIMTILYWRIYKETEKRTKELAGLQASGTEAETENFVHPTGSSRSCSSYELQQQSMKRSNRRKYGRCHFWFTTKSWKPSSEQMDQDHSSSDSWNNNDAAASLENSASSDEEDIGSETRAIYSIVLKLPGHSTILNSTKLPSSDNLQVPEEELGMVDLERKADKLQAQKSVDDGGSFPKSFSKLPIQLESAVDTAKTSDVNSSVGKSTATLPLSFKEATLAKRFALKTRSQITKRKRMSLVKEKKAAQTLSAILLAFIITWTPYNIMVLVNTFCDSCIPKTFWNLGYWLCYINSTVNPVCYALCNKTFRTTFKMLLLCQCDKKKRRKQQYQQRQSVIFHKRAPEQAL
5-hydroxytryptamine receptor 1D (Homo sapiens), sequence (P28221 whole entry): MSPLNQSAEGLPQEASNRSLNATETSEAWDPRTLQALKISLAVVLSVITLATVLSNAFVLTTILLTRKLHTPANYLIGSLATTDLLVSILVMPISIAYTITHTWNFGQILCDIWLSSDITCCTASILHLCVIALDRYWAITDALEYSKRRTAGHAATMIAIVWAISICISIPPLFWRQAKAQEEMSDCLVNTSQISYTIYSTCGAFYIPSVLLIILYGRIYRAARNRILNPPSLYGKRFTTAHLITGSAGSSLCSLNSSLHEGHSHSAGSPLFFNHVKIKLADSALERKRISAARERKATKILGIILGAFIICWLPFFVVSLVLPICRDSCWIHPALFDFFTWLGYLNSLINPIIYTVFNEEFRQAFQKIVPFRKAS
5-hydroxytryptamine receptor 6 (Homo sapiens), sequence (P50406 whole entry): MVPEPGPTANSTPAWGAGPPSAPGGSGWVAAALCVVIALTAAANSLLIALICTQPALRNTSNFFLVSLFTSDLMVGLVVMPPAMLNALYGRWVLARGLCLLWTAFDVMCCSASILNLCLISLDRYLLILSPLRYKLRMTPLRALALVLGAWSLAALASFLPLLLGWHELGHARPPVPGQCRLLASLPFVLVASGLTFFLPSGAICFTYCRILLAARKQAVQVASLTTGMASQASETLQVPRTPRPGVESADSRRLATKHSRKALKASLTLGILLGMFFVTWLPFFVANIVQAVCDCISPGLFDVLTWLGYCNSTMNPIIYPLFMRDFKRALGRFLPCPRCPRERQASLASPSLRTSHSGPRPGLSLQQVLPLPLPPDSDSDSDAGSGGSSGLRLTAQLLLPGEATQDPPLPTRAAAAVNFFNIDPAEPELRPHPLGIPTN
Mu-type opioid receptor (Homo sapiens), sequence (P35372 whole entry): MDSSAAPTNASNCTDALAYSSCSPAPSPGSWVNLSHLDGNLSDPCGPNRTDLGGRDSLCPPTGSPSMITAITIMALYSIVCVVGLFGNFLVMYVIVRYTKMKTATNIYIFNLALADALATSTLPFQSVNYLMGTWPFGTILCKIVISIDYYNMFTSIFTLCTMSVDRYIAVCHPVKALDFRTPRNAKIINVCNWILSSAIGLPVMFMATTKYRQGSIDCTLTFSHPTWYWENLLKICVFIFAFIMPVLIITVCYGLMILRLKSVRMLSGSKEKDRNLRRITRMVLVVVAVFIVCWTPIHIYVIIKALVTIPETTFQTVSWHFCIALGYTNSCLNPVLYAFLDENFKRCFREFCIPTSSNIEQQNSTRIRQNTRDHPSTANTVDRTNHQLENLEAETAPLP
Histamine H4 receptor (Homo sapiens), sequence (Q9H3N8 whole entry): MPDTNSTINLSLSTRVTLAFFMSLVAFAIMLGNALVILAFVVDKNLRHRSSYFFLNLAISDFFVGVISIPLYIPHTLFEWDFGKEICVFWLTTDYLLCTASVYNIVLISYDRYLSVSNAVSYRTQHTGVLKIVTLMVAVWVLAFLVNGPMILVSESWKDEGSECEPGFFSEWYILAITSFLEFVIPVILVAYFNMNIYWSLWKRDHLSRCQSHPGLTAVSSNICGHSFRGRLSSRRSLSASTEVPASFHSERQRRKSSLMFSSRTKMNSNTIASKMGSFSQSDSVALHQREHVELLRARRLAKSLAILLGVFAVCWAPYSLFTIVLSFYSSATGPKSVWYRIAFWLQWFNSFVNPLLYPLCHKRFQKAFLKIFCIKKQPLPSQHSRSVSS
5-hydroxytryptamine receptor 2A (Homo sapiens), sequence (P28223 whole entry): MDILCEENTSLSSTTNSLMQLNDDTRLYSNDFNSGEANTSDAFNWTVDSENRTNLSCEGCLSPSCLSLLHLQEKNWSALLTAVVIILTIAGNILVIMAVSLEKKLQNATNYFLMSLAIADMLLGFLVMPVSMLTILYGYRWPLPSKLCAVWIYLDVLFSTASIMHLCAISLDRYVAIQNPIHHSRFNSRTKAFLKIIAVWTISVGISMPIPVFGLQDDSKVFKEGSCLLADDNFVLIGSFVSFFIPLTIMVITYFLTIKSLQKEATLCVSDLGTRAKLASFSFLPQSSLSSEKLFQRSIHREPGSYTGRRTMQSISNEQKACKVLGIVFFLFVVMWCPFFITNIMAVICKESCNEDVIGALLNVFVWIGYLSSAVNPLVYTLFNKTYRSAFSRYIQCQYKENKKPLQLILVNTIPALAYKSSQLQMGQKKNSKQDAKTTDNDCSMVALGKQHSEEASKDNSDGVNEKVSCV
D(1B) dopamine receptor (Homo sapiens), sequence (P21918 whole entry): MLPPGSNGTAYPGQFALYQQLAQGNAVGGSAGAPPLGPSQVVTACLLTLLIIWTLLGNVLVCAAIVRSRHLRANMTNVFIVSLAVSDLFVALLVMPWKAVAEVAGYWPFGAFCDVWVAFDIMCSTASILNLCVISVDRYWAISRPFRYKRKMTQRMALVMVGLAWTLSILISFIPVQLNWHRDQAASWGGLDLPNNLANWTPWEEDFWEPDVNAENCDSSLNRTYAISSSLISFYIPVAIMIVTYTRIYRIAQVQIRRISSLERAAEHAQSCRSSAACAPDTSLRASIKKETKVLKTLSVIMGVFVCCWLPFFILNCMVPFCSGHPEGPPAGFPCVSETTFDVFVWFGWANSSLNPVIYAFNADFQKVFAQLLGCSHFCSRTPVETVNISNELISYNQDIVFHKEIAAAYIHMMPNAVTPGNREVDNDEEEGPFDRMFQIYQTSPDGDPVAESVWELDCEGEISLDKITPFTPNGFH

| SMILES | inhibition [1] | inhibition [2] | inhibition [3] | inhibition [4] | inhibition [5] | inhibition [6] | inhibition [7] | inhibition [8] | inhibition [9] | inhibition [10] | inhibition [11] | inhibition [12] | inhibition [13] | inhibition [14] | inhibition [15] | inhibition [16] | inhibition [17] |
| --- | --- | --- | --- | --- | --- | --- | --- | --- | --- | --- | --- | --- | --- | --- | --- | --- | --- |
| CCCCCNC(=N)N/N=C/c1c[nH]c2ccc(OC)cc12 | 55.8% | 69% | 54.7% | 19.6% | 7.96% | 54.4% | 19% | 27.9% | 76.3% | 93.7% | 92.8% | 89% | 93.6% | 12.6% | 63.9% | 94.2% | 89.7% |
| COc1ccc(NS(=O)(=O)c2sc3ccc(Cl)cc3c2C)cc1N1CCNCC1 | 33% | 35.1% | 32.3% | -7.39% | 3.19% | 22.4% | 16.6% | 18.2% | 66.8% | 37.4% | 51.7% | 87.3% | 38.3% | 29.8% | 56.3% | 81.8% | 56.5% |
| CCc1ccc(OCc2ccccc2C(=O)Nc2ccc3nc(C)cc(N)c3c2)cc1 | 57.8% | 55.2% | 8.05% | 74.4% | 11.1% | 39.1% | – | 36.6% | 59.3% | 83.4% | 91.2% | 46.5% | 46.5% | -2.98% | 81.7% | 91.7% | 68.6% |
| CN1C2CCC1CC(OC(c1ccc(F)cc1)c1ccc(F)cc1)C2 (stereo unspecified) | 91.5% | – | -6.19% | 94.5% | 95.9% | 66.6% | -0.82% | 67.8% | 74% | 99.6% | 92.9% | 96.1% | 92.4% | – | 59.1% | 100% | 36% |
| COc1cc(-n2cnc3cc(-c4ccc(Cl)cc4)sc3c2=O)ccc1OCCN1CCCC1 | 53.1% | 47.6% | 17.8% | 84.1% | 56.6% | 27.2% | 88.9% | 58.1% | 56.6% | 32.9% | 79.9% | -7.71% | 16.4% | 28.9% | 37.9% | 94.7% | 43.7% |
| Clc1cccc(COc2cncc(N3CCNCC3)n2)c1 | 22.3% | 36.1% | 32.6% | 82% | 82.1% | 11.8% | 20.2% | 49.1% | 89.1% | 99% | 94.9% | 97.9% | 87.1% | -4.82% | 0.78% | 86.4% | 28.7% |
| COc1cccc([C@@H](C)NCCCc2ccccc2Cl)c1 | 20.3% | 72.4% | -2.01% | -0.51% | 0.89% | 8.31% | 26.7% | 0% | 33.7% | 91.1% | 91.8% | 84.3% | 48.8% | 11.8% | 57.2% | 96.3% | 50.2% |
| CCCCCCCCCCCCCCCCOC[C@H](COP(=O)([O-])OCC[N+](C)(C)C)OC(C)=O | 50.7% | 68.8% | – | 49.9% | 19.2% | 13.6% | -0.67% | – | 68.2% | 2.23% | 67.9% | 4.6% | -1.59% | 43.7% | 35.1% | 57.9% | 28.1% |
| Nc1nc2c(c(N3CCNCC3)n1)CCC1=C2[C@@H]2CCCC[C@@H]2O1 | – | 31.9% | – | 8.9% | 15.3% | -1.02% | 34.4% | 89.8% | 10% | 50.6% | 7.29% | 17.3% | 17.8% | – | 26.7% | 36.6% | 14.4% |
| C[C@@H](NCCCc1cccc(C(F)(F)F)c1)c1cccc2ccccc12 | 28.2% | 39.4% | 9.84% | 17.6% | 25.8% | -9.65% | 18.1% | 14% | 61.5% | 80.6% | 72.6% | 69.1% | 51.6% | – | 78.3% | 95.5% | 48% |
